Laboratory results from patent US20050220819A1, “Novel binding epitopes for helicobacter pylori and use thereof” (priority 2002, published 2005).
Entries after “also recorded” stand apart in the source; their conditions may differ.

Key:
Helicobacter pylori [1] = assay: TLC bacterial overlay assay: binding of radiolabeled Helicobacter pylori to glycosphingolipids, neoglycolipids and glycolipid derivatives on thin-layer plates; conditions: for binding activity of neoglycolipids with regard to Helicobacter pylori (in words): oligosaccharides reductively aminated to lipid anchor (4-hexadecylaniline); for binding activity of neoglycolipids with regard to Helicobacter pylori (in words) / binding of glycolipid derivatives with regard to Helicobacter pylori (in words): TLC overlay assay; for binding of Helicobacter pylori to purified glycosphingolipids (in words): strain 032, overlay assay on thin-layer plates
[2] = test system: Helicobacter pylori binding to human gastrointestinal cell lines; conditions: Simon et al., 1999; cited from earlier work
Helicobacter pylori [3] = conditions: Mysore et al., 2000; cited from earlier work

CC(=O)NC1C(O)OC(CO)C(OC2OC(CO)C(O)C(OC3OC(CO)C(OC4OC(CO)C(O)C(O)C4NC(C)=O)C(O)C3NC(C)=O)C2O)C1O (stereo not shown) [GalNAcβ4GlcNAcβ3Galβ4GlcNAc]
binding activity of neoglycolipids with regard to Helicobacter pylori (in words) (Helicobacter pylori [1]): clear binding activity

CC(=O)NC1C(OC2C(O)C(CO)OC(OC3C(CO)OC(O)C(O)C3O)C2O)OC(CO)C(OC2OC(CO)C(O)C(OC3OC(CO)C(O)C(O)C3O)C2O)C1O (stereo not shown) [Galα3Galβ4GlcNAcβ3Galβ4Glc]
binding activity of neoglycolipids with regard to Helicobacter pylori (in words) (Helicobacter pylori [1]): clear binding activity

CC(=O)N[C@H]1[C@H](OC[C@H]2OC(O)[C@H](NC(C)=O)[C@@H](O)[C@@H]2O)O[C@H](CO)[C@@H](O[C@@H]2O[C@H](CO)[C@H](O)[C@H](O)[C@H]2O)[C@@H]1O (stereo partly shown) [Galβ4GlcNAcβ6GlcNAc]
binding activity of neoglycolipids with regard to Helicobacter pylori (in words) (Helicobacter pylori [1]): clear binding activity

CNC(=O)C1OC(OC2C(O)C(CO)OC(OC3C(CO)OC(OCC4OC(O)C(NC(C)=O)C(O)C4O)C(NC(C)=O)C3O)C2O)C(O)C(O)C1O (stereo not drawn) [Glc(A-methylamide)β3Galβ4GlcNAcβ6GlcNAc]
binding activity of neoglycolipids with regard to Helicobacter pylori (in words) (Helicobacter pylori [1]): strong binding activity

CC(=O)NC1C(OC2C(O)C(CO)OC(OC3C(CO)OC(O)C(O)C3O)C2O)OC(CO)C(OC2OC(CO)C(O)C(OC3OC(C(=O)O)C(O)C(O)C3O)C2O)C1O (stereo not shown) [GlcAβ3Galβ4GlcNAcβ3Galβ4Glc]
binding activity of neoglycolipids with regard to Helicobacter pylori (in words) (Helicobacter pylori [1]): clear binding activity

CC(=O)NC1C(O)OC(CO)C(OC2OC(CO)C(O)C(OC3OC(CO)C(O)C(O)C3NC(C)=O)C2O)C1O (stereo not shown) [GlcNAcβ3Galβ4GlcNAc]
binding activity of neoglycolipids with regard to Helicobacter pylori (in words) (Helicobacter pylori [1]): weakly binding or inactive

CC(=O)NC1C(O)OC(COC2OC(CO)C(OC3OC(CO)C(O)C(OC4OC(CO)C(O)C(O)C4NC(C)=O)C3O)C(O)C2NC(C)=O)C(O)C1O (stereo not shown) [GlcNAcβ3Galβ4GlcNAcα6GlcNAc]
binding activity of neoglycolipids with regard to Helicobacter pylori (in words) (Helicobacter pylori [1]): weakly binding or inactive | binding activity of neoglycolipids with regard to Helicobacter pylori (in words) (Helicobacter pylori [1]; listed as GlcNAcα3Galβ4GlcNAcα6GlcNAc): inactive or very weakly active

CC(=O)N[C@H]1[C@H](O[C@H]2[C@@H](O)[C@@H](CO)O[C@@H](O[C@H]3[C@H](O)[C@@H](O)C(O)O[C@@H]3CO)[C@@H]2O)O[C@H](CO)[C@@H](O[C@@H]2O[C@H](CO)[C@H](O)[C@@H](O[C@@H]3O[C@H](CO)[C@@H](O)[C@H](O)[C@H]3NC(C)=O)[C@H]2O)[C@@H]1O (stereo partly shown) [GlcNAcβ3Galβ4GlcNAcβ3Galβ4Glc]
binding activity of neoglycolipids with regard to Helicobacter pylori (in words) (Helicobacter pylori [1]): clear binding activity

CC(=O)NC1C(OC2C(O)C(CO)OC(OC3C(CO)OC(OC4C(O)C(O)OC(CO)C4O)C(NC(C)=O)C3O)C2O)OC(CO)C(O)C1O (stereo not shown) [GlcNAcβ3Galβ4GlcNAcβ3Man]
binding activity of neoglycolipids with regard to Helicobacter pylori (in words) (Helicobacter pylori [1]): clear binding activity

CC(=O)N[C@H]1[C@H](OC[C@H]2OC(O)[C@H](O)[C@@H](O)[C@H]2O)O[C@H](CO)[C@@H](O[C@@H]2O[C@H](CO)[C@H](O)[C@H](O[C@@H]3O[C@H](CO)[C@@H](O)[C@H](O)[C@H]3NC(C)=O)[C@H]2O)[C@@H]1O (stereo partly shown) [GlcNAcβ3Galβ4GlcNAcβ6Gal]
binding activity of neoglycolipids with regard to Helicobacter pylori (in words) (Helicobacter pylori [1]): some binding activity; also recorded: strong binding activity

CC(=O)N[C@H]1[C@H](OC[C@H]2O[C@@H](O[C@H]3[C@H](O)[C@@H](O)C(O)O[C@@H]3CO)[C@H](O)[C@@H](O)[C@H]2O)O[C@H](CO)[C@@H](O[C@@H]2O[C@H](CO)[C@H](O)[C@H](O[C@@H]3O[C@H](CO)[C@@H](O)[C@H](O)[C@H]3NC(C)=O)[C@H]2O)[C@@H]1O (stereo partly shown) [GlcNAcβ3Galβ4GlcNAcβ6Galβ4Glc]
binding activity of neoglycolipids with regard to Helicobacter pylori (in words) (Helicobacter pylori [1]): weakly binding or inactive; also recorded: binding activity was strongly reduced

CC(=O)N[C@H]1[C@H](OC[C@H]2OC(O)[C@H](NC(C)=O)[C@@H](O)[C@@H]2O)O[C@H](CO)[C@@H](O[C@@H]2O[C@H](CO)[C@H](O)[C@H](O[C@@H]3O[C@H](CO)[C@@H](O)[C@H](O)[C@H]3NC(C)=O)[C@H]2O)[C@@H]1O (stereo partly shown) [GlcNAcβ3Galβ4GlcNAcβ6GlcNAc]
binding activity of neoglycolipids with regard to Helicobacter pylori (in words) (Helicobacter pylori [1]): high affinity binding; also recorded: strong binding activity

GalNAcβ3Galα3Galβ4GlcNAcβ3Galβ4Glcβ1Cer [No. 25, reference compound]
binding of Helicobacter pylori to purified glycosphingolipids (in words) (Helicobacter pylori [1]): non-binding

GalNAcβ3Galβ4GlcNAcβ3Galβ4Glcβ1Cer [No. 11, reference compound]
binding of Helicobacter pylori to purified glycosphingolipids (in words) (Helicobacter pylori [1]): binding was also found

Galα3Galβ4GlcNAcβ3Galβ4Glcβ1Cer [No. 13, reference compound]
binding of Helicobacter pylori to purified glycosphingolipids (in words) (Helicobacter pylori [1]): binding-active

Glc(A-NH2)β3GalNAcβ4Glc(A-NH2)β3GalNAc
binding activity of neoglycolipids with regard to Helicobacter pylori (in words) (Helicobacter pylori [1]): strong binding activity

Glc(A-benzylamide)β3 Galβ4GlcNAcβ3Galβ4GlcβCer
binding of glycolipid derivatives with regard to Helicobacter pylori (in words) (Helicobacter pylori [1]): binding active | binding strength towards H. pylori when comparing dilution series of glycolipids on TLC (in words) (Helicobacter pylori [1]): binding effectively

Glc(A-ethylamide)β3 Galβ4GlcNAcβ3Galβ4GlcβCer
binding of glycolipid derivatives with regard to Helicobacter pylori (in words) (Helicobacter pylori [1]): binding active | binding strength towards H. pylori when comparing dilution series of glycolipids on TLC (in words) (Helicobacter pylori [1]): about equally strong binders and best among the four amide derivatives

Glc(A-methylamide)β3Galβ4GlcNAcβ3Galβ4GlcβCer
binding of glycolipid derivatives with regard to Helicobacter pylori (in words) (Helicobacter pylori [1]): binding active | binding strength towards H. pylori when comparing dilution series of glycolipids on TLC (in words) (Helicobacter pylori [1]): very strong binding

Glc(A-octadecylamide)β3Galβ4GlcNAcβ3Galβ4GlcβCer
binding of glycolipid derivatives with regard to Helicobacter pylori (in words) (Helicobacter pylori [1]): binding active | binding strength towards H. pylori when comparing dilution series of glycolipids on TLC (in words) (Helicobacter pylori [1]): binding effectively

GlcAβ3GalNAcβ4GlcAβ3GalNAcβ4GlcAβ3GalNAc
binding activity of neoglycolipids with regard to Helicobacter pylori (in words) (Helicobacter pylori [1]): clear binding activity

GlcAβ3Galβ4GlcNAcβ3Galβ4GlcβCer [reference compound]
binding of glycolipid derivatives with regard to Helicobacter pylori (in words) (Helicobacter pylori [1]): binding active

GlcAβ3Galβ4GlcNAcβ6GlcNAc
binding activity of neoglycolipids with regard to Helicobacter pylori (in words) (Helicobacter pylori [1]): clear binding activity

Glcβ3Galβ4GlcNAcβ3Galβ4GlcβCer
binding of glycolipid derivatives with regard to Helicobacter pylori (in words) (Helicobacter pylori [1]): binding active | binding strength towards H. pylori when comparing dilution series of glycolipids on TLC (in words) (Helicobacter pylori [1]): strong binding

NeuAcα3GalNAcβ3Galβ4GlcNAcβ3Galβ4Glcβ1Cer [No. 24, reference compound]
binding of Helicobacter pylori to purified glycosphingolipids (in words) (Helicobacter pylori [1]): non-binding

maltoheptaose [reference compound]
binding activity of neoglycolipids with regard to Helicobacter pylori (in words) (Helicobacter pylori [1]): weakly binding or inactive

sialyl-lactose
inhibition of Helicobacter pylori binding to human gastrointestinal cell lines [2]: inhibits | efficacy in rhesus monkey animal model of the infection (Helicobacter pylori [3]): effective
